Laboratory results from US20250064773A1, “TARGETING ERO1 ALPHA WITH AURONE DERIVATIVES” (West Virginia University Board of Governors on behalf of …, priority 2021, published 2025).
Each block holds one compound with its values, some of them ahead of it.

Experiments:
purified human ERO1α = target: T1, purified human ERO1α (Homo sapiens, UniProt Q96HE7, C104A/C131A/C166A); assay: Recombinant ERO1α enzyme assay (Amplex Red); assay type: biochemical; settings: for inhibition at 10 µM: average of N = 3 ± S.D., read-out: % inhibition (10 μM) of ERO1α enzyme activity compared to vehicle control
T1 construct: made in house
T1 sequence (Q96HE7 22-468 C104A/C131A/C166A): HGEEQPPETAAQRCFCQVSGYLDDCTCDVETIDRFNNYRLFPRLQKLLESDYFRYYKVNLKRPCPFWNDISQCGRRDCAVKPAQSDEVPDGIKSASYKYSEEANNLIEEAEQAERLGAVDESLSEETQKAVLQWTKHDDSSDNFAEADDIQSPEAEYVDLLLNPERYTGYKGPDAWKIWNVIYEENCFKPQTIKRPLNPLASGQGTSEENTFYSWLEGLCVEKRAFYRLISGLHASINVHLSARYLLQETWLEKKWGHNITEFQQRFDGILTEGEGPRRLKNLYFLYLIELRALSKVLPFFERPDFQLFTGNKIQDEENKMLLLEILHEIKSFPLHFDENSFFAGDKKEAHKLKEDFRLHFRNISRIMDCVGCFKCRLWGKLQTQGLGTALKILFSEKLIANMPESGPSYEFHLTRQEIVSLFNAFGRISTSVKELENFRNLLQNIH
Experimental: Based on previous work which established an aurone chemical class of compounds as FAD containing enzyme inhibitors^37, we evaluated sulfuretin analogs for ERO1α enzyme inhibition.
Quantification of enzymatic activity of ERO1α was performed using the Amplex Red as previously described^6.

LSD-1 = LSD-1 (Homo sapiens, UniProt O60341); settings: cited from earlier work
PC-9 cells = assay: Soft agar clonogenic assay, PC-9; assay type: cell-based; settings: 14 days, 3.75-15 μM
Experimental: (§1) We utilized an MTT assay to determine the potency of the compounds for inhibiting cell growth. […] We next asked whether T151742 induced inhibition of cell growth was dependent on ERO1α expression. As shown in FIG. 6C two ERO1α deleted clones in the PC-9 cell line were isolated. Using an MTT assay to determine overall cellar viability, a non-targeted control (scramble), and both ERO1α knockout clones was subjected to treatment with T151742 for 72 hours (See FIG. 6D). […] Though only slight differences were observed between T151742 and EN-460 we tested the effects of these compounds in a clonogenic assay which is a better test for inhibition of self-renewal.
FIG. 7A and FIG. 7B show 1000 cells/well were plated in a 12-well plate in triplicate with either 0.5% DMSO, T151742, or EN-460 and allowed to form colonies for 14 days. Colonies were subsequently stained with 0.01% Crystal Violet, imaged, and quantified using ImageJ. […] Colonies were stained with 0.01% Crystal Violet, imaged, and quantified using ImageJ.
Cell Lines: PC-9 cell line used was obtained from Sigma Aldrich and grown in RPMI 1640 medium with 10% fetal bovine serum and 1% penicillin/streptomycin. […] Plate was then read on the BioTek Cytation 5 at 530/590 nm. […] Plate was then read at 570 nm. […] Images were then quantified using ImageJ. […]

MAO-B = target: T2, MAO-B (Homo sapiens, UniProt P27338); settings: cited from earlier work
T2 sequence (P27338 1-520): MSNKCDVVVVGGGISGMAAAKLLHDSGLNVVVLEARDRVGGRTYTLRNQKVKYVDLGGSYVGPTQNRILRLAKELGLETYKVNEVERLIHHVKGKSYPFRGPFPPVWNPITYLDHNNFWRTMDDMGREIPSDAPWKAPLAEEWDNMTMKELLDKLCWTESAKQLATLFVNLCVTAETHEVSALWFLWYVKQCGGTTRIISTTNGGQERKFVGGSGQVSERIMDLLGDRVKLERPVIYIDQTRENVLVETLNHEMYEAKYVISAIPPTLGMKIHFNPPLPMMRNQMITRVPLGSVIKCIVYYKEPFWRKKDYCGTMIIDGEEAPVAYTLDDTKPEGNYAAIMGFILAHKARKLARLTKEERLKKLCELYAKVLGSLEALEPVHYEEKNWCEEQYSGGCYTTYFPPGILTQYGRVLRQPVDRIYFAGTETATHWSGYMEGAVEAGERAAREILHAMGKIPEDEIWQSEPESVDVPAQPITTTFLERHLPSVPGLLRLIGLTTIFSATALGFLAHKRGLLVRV

MAO-A = target: T3, MAO-A (Homo sapiens, UniProt P21397); settings: cited from earlier work
T3 sequence (P21397 1-527): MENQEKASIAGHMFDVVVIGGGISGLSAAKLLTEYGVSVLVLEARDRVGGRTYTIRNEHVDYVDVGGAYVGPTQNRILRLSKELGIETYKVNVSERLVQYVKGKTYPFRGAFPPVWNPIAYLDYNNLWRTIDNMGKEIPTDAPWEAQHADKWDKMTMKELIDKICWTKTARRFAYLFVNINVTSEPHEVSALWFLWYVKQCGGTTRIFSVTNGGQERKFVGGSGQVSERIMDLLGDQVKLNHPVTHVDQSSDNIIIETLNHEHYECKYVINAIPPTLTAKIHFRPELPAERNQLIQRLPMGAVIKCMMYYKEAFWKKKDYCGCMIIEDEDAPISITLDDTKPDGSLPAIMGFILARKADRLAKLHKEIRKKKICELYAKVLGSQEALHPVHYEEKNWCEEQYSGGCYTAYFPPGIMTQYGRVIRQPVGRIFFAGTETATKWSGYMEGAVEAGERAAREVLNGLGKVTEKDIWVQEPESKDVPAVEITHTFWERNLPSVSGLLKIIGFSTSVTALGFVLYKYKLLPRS

[1] = tested on: PC-9 non-small cell lung cancer cell line; assay: MTT viability assay, PC-9; assay type: cell-based; settings: 72 h, read-out: IC50, MTT assay, PC-9
Experimental: as §1
Cell Lines: PC-9 cell line used was obtained from Sigma Aldrich and grown in RPMI 1640 medium with 10% fetal bovine serum and 1% penicillin/streptomycin. HCC4006, U266, MM1.s, and Beas-2B cell lines were obtained from ATCC and cultured in either RPMI 1640 or DMEM with 10% fetal bovine serum and 1% penicillin/streptomycin. All cell lines were also checked for mycoplasma every six months and subjected to short tandem repeat (STR) analysis for cell line validation. CRISPR Cas9: CRISPR Guide RNA 2 targeting ERO1α and CRISPR Guide RNA 4 were purchased from Genscript in the pLentiCRISPR V2 plasmid containing puromycin/ampicillin selection marker. Lentivirus was made from HEK 293T cells by co-transfection with GuideRNA of interest, pVSVG, and pPAX2 plasmids. Lentivirus was collected after 48 hours and concentrated using 40% PEG8000. […] Plate was then read on the BioTek Cytation 5 at 530/590 nm. […] Plate was then read at 570 nm. Treated wells were all compared to DMSO control wells to calculate percent growth inhibition and the IC50 was calculated using GraphPad (log(inhibitor) vs growth inhibition). […] Images were then quantified using ImageJ. […] Cells were aliquoted at 1 million cells per PCR tube in PBS and heated in Bio-Rad T100 thermal cycler at indicated temperatures (RT, 46° C., 48° C., 50° C., 52° C., 54° C., 56°, 58° C., and 60° C.) for 3 minutes and aggregation temperature was determined by western blot analysis. […]

SMILES: N[C@@H]1C[C@H]1c1ccccc1 (racemic) [tranylcypromine, reference compound]
inhibition of ERO1α activity (concentration response, FIG. 8) (purified human ERO1α; covalent modifiers of FAD): did not inhibit

SMILES: O=C(O)c1cc(N2N=C(C(F)(F)F)/C(=C/c3ccc(-c4ccccc4)o3)C2=O)ccc1Cl [EN-460, reference compound]
inhibition of LSD-1 (LSD-1): inhibits | activity in clonogenicity assay (colony number) (PC-9 cells): devoid of activity | inhibition of / activity against MAO-B (MAO-B): inhibits | IC50 (purified human ERO1α; purified human ERO1α 0.0625 mg/mL, PDI 0.0625 mg/mL, mean ± S.D., N=3): 16.5 ± 3.47 µM | inhibition of / activity against MAO-A (MAO-A): inhibits

IC50 [1]: 32.4 ± 6.01 µM
SMILES: O=C(O)c1ccc(/C=C2\Oc3cc(O)ccc3C2=O)cc1 [SR-F-114]

inhibition at 10 µM (purified human ERO1α): 20.7 ± 4.92%
SMILES: O=C1/C(=C/c2c(F)cccc2Cl)Oc2cc(O)ccc21 [SR-F-125]

inhibition at 10 µM (purified human ERO1α): 38.7 ± 1.56%
SMILES: O=C1/C(=C/c2ccc(-c3ccccc3)cc2)Oc2cc(O)ccc21 [SR-F-126]
